Measured values: US6545053B1, “Tricyclic compounds and drug compositions containing same” (Asahi Kasei Kogyo Kabushiki Kaisha, priority 1996, dated 2003)
pEC50: −log10 of the molar value. Structures can show the parent of a compound that is named as a salt. Where two headings read alike, the source gives them in different places.

Legend:
canine adipocytes = test: Lipolytic activity in canine fatty cell (glycerol release); assay type: cell-based, dogs; conditions: Canis lupus familiaris, Adipocyte; for pEC50: 1 h, glycerol release, canine adipocytes, read-out: ED50 (the source's name); for Emax: read-out: Intrinsic activity (%)
Experimental: Lipolytic Activity in Canine Fatty Cell
Adipose tissues in the omentum were collected from dogs and minced and washed. Krebs-Ringer buffer solution containing 1 mg/ml Collagenase (Sigma) and 1% of bovine serum albumin was added in an amount of 3 ml per one gram of the tissue. These cells were then incubated at 37° C. for 30 minutes with shaking and then undigested tissues were removed with a nylon filter. The resulting adipocytes were washed four times with Krebs-Ringer buffer, and then the concentration of cells was diluted to 2×10^5/ml with Krebs-Ringer buffer solution containing 4% of bovine serum albumin. These cells were transferred to Eppendorf tubes each in an amount of 300 μl.
Each 300 μl of a culture medium containing the test compounds were added to these tubes and was held at 37° C. for 1 hour whith shaking. Stimulation was stoped by cooling with ice. After centrifugation, the adipocytes were taken off with an aspirator, whereupon the glycerol was determined using F-KIT GLTCEROL (Behringer-Manheim).

human β3 = target: T1, human β3 (Homo sapiens, UniProt P13945); test: Human β3-agonist activity (cAMP in CHO cells transfected with human β3 gene); assay type: cell-based; conditions: for Emax: CHO, read-out: Intrinsic activity (%)
T1 construct: And then full length of human β3 gene was cloned using this fragment as a probe; expressed in transfected cells; host or cells: CHO cells (Chinese hamster ovary), pcDNA3 vector
T1 sequence (P13945 whole entry, the tested form may be a part): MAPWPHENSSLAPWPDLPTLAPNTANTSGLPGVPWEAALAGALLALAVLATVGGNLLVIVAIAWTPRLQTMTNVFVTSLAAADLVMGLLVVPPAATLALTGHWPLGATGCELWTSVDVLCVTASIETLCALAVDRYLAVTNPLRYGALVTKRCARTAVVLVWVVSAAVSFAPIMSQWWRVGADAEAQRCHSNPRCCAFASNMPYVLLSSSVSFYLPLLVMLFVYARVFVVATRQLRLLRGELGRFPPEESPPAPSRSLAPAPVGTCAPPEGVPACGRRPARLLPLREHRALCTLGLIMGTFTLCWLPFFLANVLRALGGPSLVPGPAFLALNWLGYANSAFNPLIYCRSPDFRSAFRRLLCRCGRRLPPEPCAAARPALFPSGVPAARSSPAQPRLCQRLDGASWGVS
Experimental: Human β3-agonist Activity
Human β3-agonist activity was examined using CHO cells (chinese hamster ovarian cells) to which pcDNA3 (in vitrogen) cells inserted human β3 gene was transfected. Human β3 fragment was obtained by PCR using human fat tissue cDNA (supplied from Clontech) with a β3 primer [Krief et al, J. Clin. Invest.
The cells were cultured in a HAM F-12 medium containing 10% of fetal bovine serum, 400 μg/ml of Geneticin (Gibco BRL). 100 U/ml penicillin and 100 μg/ml streptomycin. 5×10^5 cells were placed on a 6-well plate and cultured for 24 hours, after which the medium was changed to a HAM F-12 medium without serum and was kept for 2 hours. Each test compound was first dissolved in DMSO, and then diluted with a HAM F-12 medium containing 1 mM isobutylmethyl xanthine and 1 mM ascorbic acid. A 10-fold dilution in the range of 10^−5 to 10^−12 M was added into the cell.
After culturing for 30 minutes, culture medium was withdrawn, 0.5 ml of 1 N NaOH was added and was kept for 20 minutes. And then 0.5 ml of 1 N acetic acid was added with subsequent agitation and centrifugation. Finally the concentration of cAMP were analyzed using cAMP EIA KIT (Cayman). […] Isoprotelenol was purchased from Research Biochimicals International.

[1] = cAMP, CHO cells with human β3, read-out: ED50 (the source's name)

pEC50 (human β3; [1])	SMILES	pEC50 (canine adipocytes)	Emax (canine adipocytes) [%]	pEC50 (human β3)	Emax (human β3) [%]
	CS(=O)(=O)Nc1cc(C(O)CNCCOc2ccc3c(c2)oc2ccccc23)ccc1O (racemic) [Example 4, (±)-N-[5-[2-[2-(Dibenzofuran-3-yloxy)ethylamino]-1-hydroxyethyl]-2-hydroxyphenyl]methanesulfonamide Hydrochloride]	9.15	88	9.28	80
6.12	CS(=O)(=O)Nc1cccc(C(O)CNCCOc2ccc3c(c2)oc2ccccc23)c1 (racemic) [Example 9, (±)-N-[3-[2-[2-(Dibenzofuran-3-yloxy)ethylamino]-1-hydroxyethl]phenyl]methanesulfonamide Hydrochloride]	6.60	106		85
	CN(C)S(=O)(=O)Nc1cc(C(O)CNCCOc2ccc3c(c2)[nH]c2ccccc23)ccc1O (racemic) [Example 25, (±)-N′-[5-[2-[2-(9H-Carbazol-2-yloxy)ethylamino]-1-hydroxyethyl]-2-hydroxyphenyl]-N,N-dimethylsulfamide Hydrochloride]	6.29	70	8.68	95
	CS(=O)(=O)Nc1cc(C(O)CNCCOc2ccc3c(c2)sc2ccccc23)ccc1O (racemic) [Example 38, (±)-N-[5-[2-[2-(Dibenzothiophen-3-yloxy)ethylamino]-1-hydroxyethyl]-2-hydroxyphenyl]methanesulfonamide Hydrochloride]	8.59	103	11.22	76
	CN(C)S(=O)(=O)Nc1cc(C(O)CNCCOc2ccc3c(c2)sc2ccccc23)ccc1O (racemic) [Example 40, (±)-N′-[5-[2-[2-(Dibenzothiophen-3-yloxy)ethylamino]-1-hydroxyethyl]-2-hydroxyphenyl]-N, N-dimethylsulfamide Hydrochloride]	7.89	92	6.70	97
6.22	CS(=O)(=O)Nc1cccc(C(O)CNCCOc2ccc3c(c2)sc2ccccc23)c1 (racemic) [Example 41, (±)-N-[3-[2-[2-(Dibenzothiophen-3-yloxy)ethlamino]-1-hydroxyethyl]phenyl]methanesulfonamide Hydrochloride]	6.62	109		63
	CN(C)S(=O)(=O)Nc1cc(C(O)CNCCOc2ccc3c(c2)oc2ccccc23)ccc1O (racemic) [Example 43, (±)-N′-[5-[2-[2-(Dibenzofuran-3-yloxy)ethylamino]-1-hydroxyethyl]-2-hydroxyphenyl]-N,N-dimethylsulfamide Hydrochloride]	8.40	77	7.07	104
9.03	CC(=O)Nc1ccc2c(c1)Cc1cc(OCCNCC(O)c3ccc(O)c(NS(C)(=O)=O)c3)ccc1-2 (racemic) [Example 50, (±)-N-[5-[2-[2-(9H-7-Acetylaminofluoren-2-yloxy)ethylamino]-1-hydroxyethyl]-2-hydroxyphenyl]methanesulfonamide Hydrochloride]	9.72	112		85
8.59	CS(=O)(=O)Nc1cc(C(O)CNCCOc2ccc3c(c2)Cc2cc(N)ccc2-3)ccc1O (racemic) [Example 52, (±)-N-[5-[2-[2-(9H-7-Aminofluoren-2-yloxy)ethylamino]-1-hydroxyethyl]-2-hydroxyphenyl]methanesulfonamide Hydrochloride]	9.42	100		78
	CC(C)S(=O)(=O)Nc1cc(C(O)CNCCOc2ccc3c(c2)[nH]c2ccccc23)ccc1O (racemic) [Example 54, (±)-N-[5-[2-[2-(9H-Carbazol-2-yloxy)ethylamino]-1-hydroxyethyl]-2-hydroxyphenyl]-2-propanesulfonamide Hydrochloride]	7.60	118	8.08	109
	OCc1cc(C(O)CNCCOc2ccc3c(c2)[nH]c2ccccc23)ccc1O (racemic) [Example 67, (±)-2-[N-[2-(9H-Carbazol-2-yloxy)ethyl]amino]-1-[4-hydroxy-3-(hydroxymethyl)phenyl]ethanol Hydrochloride]	7.27	94	7.55	109
	COC(CNCCOc1ccc2c(c1)[nH]c1ccccc12)c1ccc(N)c(NS(C)(=O)=O)c1 (racemic) [Example 92, (±)-N-[5-[2-[2-(9H-Carbazol-2-yloxy)ethylamino]-1-methoxyethyl]-2-aminophenyl]methanesulfonamide Hydrochloride]	5.72	126	6.55	81
	O[C@@H](CNCCOc1ccc2c(c1)[nH]c1ccccc12)c1ccccc1 [Example 32, (R)-2-[N-[2-(9H-Carbazol-2-yloxy)ethyl]amino]-1-phenylethanol Hydrochloride]	6.54	94	5.80	98
	CS(=O)(=O)Nc1cc([C@@H](O)CNCCOc2ccc3c(c2)oc2ccccc23)ccc1O [Example 69, (R)-N-[5-[2-[2-(Dibenzofuran-3-yloxy)ethylamino]-1-hydroxyethyl]-2-hydroxyphenyl]methanesulfonamide Hydrochloride]	9.19	107	10.80	94
6.74	CC(=O)Nc1ccc2c(c1)Cc1cc(OCCNC[C@H](O)c3cccc(NS(C)(=O)=O)c3)ccc1-2 [Example 71, (R)-N-13-[2-[2-(9H-7-Acetylaminofluoren-2-yloxy)ethylamino]-1-hydroxyethyl]phenyl]methanesulfonamide Hydrochloride]	6.96	88		97
	CS(=O)(=O)Nc1cc([C@@H](O)CNCCOc2ccc3c(c2)sc2ccccc23)ccc1O [Example 72, (R)-N-[5-[2-[2-(Dibenzothiophen-3-yloxy)ethylamino]-1-hydroxyethyl]-2-hydroxyphenyl]methanesulfonamide Hydrochloride]	9.27	96		80
	CN(C)S(=O)(=O)Nc1cc([C@H](O)CNCCOc2ccc3c(c2)oc2ccccc23)ccc1O [Example 76, (S)-N′-[5-[2-[2-(Dibenzofuran-3-yloxy)ethylamino]-1-hydroxyethyl]2-hydroxyphenyl]-N,N-dimethylsulfamide Hydrochloride]			6.28	131
	CS(=O)(=O)Nc1cc([C@@H](O)CNCCOc2ccc3c(c2)[nH]c2ccccc23)ccc1F [Example 77, (R)-N-[5-[2-[2-(9H-Carbazol-2-yloxy)ethylamino]-1-hydroxyethyl]-2-fluorophenyl]methanesulfonamide Hydrochloride]			7.68	100
	CS(=O)(=O)Nc1cc([C@H](O)CNCCOc2ccc3c(c2)[nH]c2ccccc23)ccc1F [Example 78, (S)-N-[5-[2-[2-(9H-Carbazol-2-yloxy)ethylamino]-1-hydroxyethyl]-2-fluorophenyl]methanesulfonamide Hydrochloride]			7.29	110
	CS(=O)(=O)Nc1cc([C@@H](O)CNCCOc2ccc3c(c2)[nH]c2ccccc23)ccc1Cl [Example 79, (R)-N-[5-[2-[2-(9H-Carbazol-2-yloxy)ethylamino]-1-hydroxyethyl]-2-chlorophenyl]methanesulfonamide Hydrochloride]			8.92	107
	CS(=O)(=O)Nc1cc([C@H](O)CNCCOc2ccc3c(c2)[nH]c2ccccc23)ccc1Cl [Example 80, (S)-N-[5-[2-[2-(9H-Carbazol-2-yloxy)ethylamino]-1-hydroxyethyl]-2-chlorophenyl]methanesulfonamide Hydrochloride]			7.24	110
8.21	CNS(=O)(=O)c1cc([C@@H](O)CNCCOc2ccc3c(c2)[nH]c2ccccc23)ccc1O [Example 81, (R)-N-methyl-[5-(2-[2-(9H-Carbazol-2-yloxy)ethylamino]-1-hydroxyethyl]-2-hydroxy]benzenesulfonamide Hydrochloride]				98
	CC(C)NCC(O)c1ccc(O)c(O)c1 (centres unmarked) [Isoproterenol, reference compound]	8.77	100		
